This note sets out measurements from the supplement of paper PMC12513837.

± gives the standard deviation of the averaged measurements.

Compound in the assay: CC(=O)N1CCc2c(c(N3CCCc4cc(-c5cnn(C)c5)c(C(F)F)cc43)nn2C2CCC(CN3CCN(c4ccc5c(c4)C(=O)N(C4CCC(=O)NC4=O)C5=O)CC3)CC2)C1 [CBPD-409]
Briefly: AUC of viability dose-response curve (relative to vehicle, 8 doses up to 10 µM) (fraction); higher = less sensitive (more viable); extreme values may be limits of the assay. How it is done:
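PRISM multiplexed pooled barcoded cell line viability screen at the Broad Institute, 887 cancer cell lines treated with CBPD-409 (p300/CBP PROTAC degrader) at 8 concentrations in threefold dilution, top dose 10 µM. The read-out is the area under the dose-response curve of relative viability versus vehicle (n=3). AUC < 0.3 is called strongly sensitive and AUC > 0.8 resistant.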

As to PC3_PROSTATE, the “AUC of viability dose-response curve” value is 0.763.

For the test system NCIH1648_LUNG, the “AUC of viability dose-response curve” value turned out to be 0.448.

As to MDAMB435S_SKIN, the “AUC of viability dose-response curve” value turned out to be 1.

Regarding “WSUDLCL2_HAEMATOPOIETIC_AND_LYMPHOID_TISSUE”, the “AUC of viability dose-response curve” value was found to be 0.505.

“KCL22_HAEMATOPOIETIC_AND_LYMPHOID_TISSUE”: the “AUC of viability dose-response curve” value turned out to be 0.552.

Take H103_UPPER_AERODIGESTIVE_TRACT: the “AUC of viability dose-response curve” value is 0.997.

Regarding SW1088_CENTRAL_NERVOUS_SYSTEM, the “AUC of viability dose-response curve” value is 1.

For OACM51_OESOPHAGUS, the “AUC of viability dose-response curve” value was determined as 1.

Regarding HCC1395_BREAST, the “AUC of viability dose-response curve” value turned out to be 0.783.

For the test system HUCCT1_BILIARY_TRACT, the “AUC of viability dose-response curve” value stood at 0.983.

Take “U2973_HAEMATOPOIETIC_AND_LYMPHOID_TISSUE”: the “AUC of viability dose-response curve” value is 0.734.

Consider JMURTK2_SOFT_TISSUE, for which the “AUC of viability dose-response curve” value was determined as 0.399.

For the test system “DND41_HAEMATOPOIETIC_AND_LYMPHOID_TISSUE”, the “AUC of viability dose-response curve” value came to 0.567.

Take A427_LUNG: the “AUC of viability dose-response curve” value stood at 0.884.

On to “MC116_HAEMATOPOIETIC_AND_LYMPHOID_TISSUE”, for which the “AUC of viability dose-response curve” value was 0.804.

Take C75_LARGE_INTESTINE: the “AUC of viability dose-response curve” value was 1.

For the test system PACADD137_PANCREAS, the “AUC of viability dose-response curve” value came to 0.587.

On to TGW_AUTONOMIC_GANGLIA, for which the “AUC of viability dose-response curve” value was determined as 0.673.

Consider 143B_BONE, for which the “AUC of viability dose-response curve” value worked out at 1.

DEL_HAEMATOPOIETIC_AND_LYMPHOID_TISSUE: the “AUC of viability dose-response curve” value was found to be 1.

Take CHAGOK1_LUNG: the “AUC of viability dose-response curve” value is 0.748.

For HT55_LARGE_INTESTINE, the “AUC of viability dose-response curve” value came to 0.509.

With RMGI_OVARY, the “AUC of viability dose-response curve” value turned out to be 0.73.

Turning to SNU1076_UPPER_AERODIGESTIVE_TRACT, the “AUC of viability dose-response curve” value is 0.845.

On to A2780_OVARY, for which the “AUC of viability dose-response curve” value turned out to be 0.625.

On to OCIC5X_OVARY, for which the “AUC of viability dose-response curve” value is 0.69.

With 93T449_SOFT_TISSUE, the “AUC of viability dose-response curve” value is 1.

With MDAMB175VII_BREAST, the “AUC of viability dose-response curve” value turned out to be 0.999.

On to IM95_STOMACH, for which the “AUC of viability dose-response curve” value turned out to be 0.57.

Consider H413_UPPER_AERODIGESTIVE_TRACT, for which the “AUC of viability dose-response curve” value is 0.842.

For HGC27_STOMACH, the “AUC of viability dose-response curve” value is 0.316.

As for “MOLM13_HAEMATOPOIETIC_AND_LYMPHOID_TISSUE”, the “AUC of viability dose-response curve” value was determined as 0.356.

Consider UMUC5_URINARY_TRACT, for which the “AUC of viability dose-response curve” value amounted to 0.749.

Turning to SW837_LARGE_INTESTINE, the “AUC of viability dose-response curve” value is 0.72.

Regarding “KMS12BM_HAEMATOPOIETIC_AND_LYMPHOID_TISSUE”, the “AUC of viability dose-response curve” value is 0.28.

As for SW1116_LARGE_INTESTINE, the “AUC of viability dose-response curve” value is 1.

Take G292CLONEA141B1_BONE: the “AUC of viability dose-response curve” value is 0.585 ± 0.31.

For the test system NCIH1048_LUNG, the “AUC of viability dose-response curve” value came out at 0.878.

For COLO792_SKIN, the “AUC of viability dose-response curve” value was found to be 0.804.

In the case of OAW42_OVARY, the “AUC of viability dose-response curve” value turned out to be 0.814.

Regarding SKHEP1_LIVER, the “AUC of viability dose-response curve” value was 1.

Consider LUDLU1_LUNG, for which the “AUC of viability dose-response curve” value turned out to be 1.

For PANC1_PANCREAS, the “AUC of viability dose-response curve” value was 0.999.

With RVH421_SKIN, the “AUC of viability dose-response curve” value stood at 0.929.

For UMUC7_URINARY_TRACT, the “AUC of viability dose-response curve” value was determined as 1.

HSKTC_OVARY: the “AUC of viability dose-response curve” value came to 1.

For the test system SKES1_BONE, the “AUC of viability dose-response curve” value stood at 0.286 ± 0.11.

Regarding LMSU_STOMACH, the “AUC of viability dose-response curve” value stood at 0.672.

Consider “U2904_HAEMATOPOIETIC_AND_LYMPHOID_TISSUE”, for which the “AUC of viability dose-response curve” value turned out to be 0.826.

Take TCCPAN2_PANCREAS: the “AUC of viability dose-response curve” value stood at 0.875.

Regarding TTC642_SOFT_TISSUE, the “AUC of viability dose-response curve” value was 0.541.

Take HUH1_LIVER: the “AUC of viability dose-response curve” value is 0.882.

Turning to OCIP5X_OVARY, the “AUC of viability dose-response curve” value was 1.

With SW13_ADRENAL_CORTEX, the “AUC of viability dose-response curve” value was 0.602.

Regarding SAOS2_BONE, the “AUC of viability dose-response curve” value was found to be 0.466.

For the test system SKMEL2_SKIN, the “AUC of viability dose-response curve” value stood at 1.

Consider PANC0813_PANCREAS, for which the “AUC of viability dose-response curve” value stood at 0.953.

HEC1A_ENDOMETRIUM: the “AUC of viability dose-response curve” value is 0.407.

TE14_OESOPHAGUS: the “AUC of viability dose-response curve” value turned out to be 0.86.

Regarding GP5D_LARGE_INTESTINE, the “AUC of viability dose-response curve” value was determined as 1.
